Measured values reported in PMC9856672, “SGC-CAMKK2-1: A Chemical Probe for CAMKK2” (Cells, 2023).

Tests used:
MAK = molecular target: T1, MAK (Homo sapiens, UniProt P20794); assay: KINOMEscan 1 μM, MAK; type: binding; conditions: 1000 nM; Entrez MAK; read-out: Percent Control
T1 construct: purchased Eurofins DiscoverX KINOMEscan
Description: (§1) Supplement cells-12-00287-s001.zip/File S2. KinomeScan data for the CAMKK2 probe and negative control.xlsx, sheet "SGC-CAMKK2-1" | column: Percent Control

WEE2 = molecular target: T2, WEE2 (Homo sapiens, UniProt P0C1S8); assay: DiscoverX KINOMEscan binding assay at 1 μM, WEE2; conditions: Compound Concentration 1000 nM, read-out: Percent Control
T2 construct: purchased Eurofins DiscoverX KINOMEscan
Description: as §1

LOK = molecular target: T3, LOK (Homo sapiens, UniProt O94804); assay: KINOMEscan 1 μM, LOK; type: binding; conditions: 1000 nM; Entrez STK10; read-out: Percent Control
T3 construct: purchased Eurofins DiscoverX KINOMEscan
Description: as §1

ACVR1 = molecular target: T4, ACVR1 (Homo sapiens, UniProt Q04771); assay: KINOMEscan 1 μM, ACVR1; type: binding; conditions: 1000 nM; Entrez ACVR1; read-out: Percent Control
T4 construct: purchased Eurofins DiscoverX KINOMEscan
Description: as §1

MINK = molecular target: T5, MINK (Homo sapiens, UniProt Q8N4C8); assay: KINOMEscan 1 μM, MINK; type: binding; conditions: 1000 nM; Entrez MINK1; read-out: Percent Control
T5 construct: purchased Eurofins DiscoverX KINOMEscan
Description: as §1

[1] = molecular target: T6, ABL1(T315I)-phosphorylated (Homo sapiens, UniProt P00519, T315I); assay: KINOMEscan 1 μM, ABL1(T315I)-phosphorylated; type: binding; conditions: 1000 nM; Entrez ABL1; read-out: Percent Control
T6 construct: purchased Eurofins DiscoverX KINOMEscan
Description: as §1

MYO3A = molecular target: T7, MYO3A (Homo sapiens, UniProt Q8NEV4); assay: KINOMEscan 1 μM, MYO3A; type: binding; conditions: 1000 nM; Entrez MYO3A; read-out: Percent Control
T7 construct: purchased Eurofins DiscoverX KINOMEscan
T7 sequence (Q8NEV4 whole entry): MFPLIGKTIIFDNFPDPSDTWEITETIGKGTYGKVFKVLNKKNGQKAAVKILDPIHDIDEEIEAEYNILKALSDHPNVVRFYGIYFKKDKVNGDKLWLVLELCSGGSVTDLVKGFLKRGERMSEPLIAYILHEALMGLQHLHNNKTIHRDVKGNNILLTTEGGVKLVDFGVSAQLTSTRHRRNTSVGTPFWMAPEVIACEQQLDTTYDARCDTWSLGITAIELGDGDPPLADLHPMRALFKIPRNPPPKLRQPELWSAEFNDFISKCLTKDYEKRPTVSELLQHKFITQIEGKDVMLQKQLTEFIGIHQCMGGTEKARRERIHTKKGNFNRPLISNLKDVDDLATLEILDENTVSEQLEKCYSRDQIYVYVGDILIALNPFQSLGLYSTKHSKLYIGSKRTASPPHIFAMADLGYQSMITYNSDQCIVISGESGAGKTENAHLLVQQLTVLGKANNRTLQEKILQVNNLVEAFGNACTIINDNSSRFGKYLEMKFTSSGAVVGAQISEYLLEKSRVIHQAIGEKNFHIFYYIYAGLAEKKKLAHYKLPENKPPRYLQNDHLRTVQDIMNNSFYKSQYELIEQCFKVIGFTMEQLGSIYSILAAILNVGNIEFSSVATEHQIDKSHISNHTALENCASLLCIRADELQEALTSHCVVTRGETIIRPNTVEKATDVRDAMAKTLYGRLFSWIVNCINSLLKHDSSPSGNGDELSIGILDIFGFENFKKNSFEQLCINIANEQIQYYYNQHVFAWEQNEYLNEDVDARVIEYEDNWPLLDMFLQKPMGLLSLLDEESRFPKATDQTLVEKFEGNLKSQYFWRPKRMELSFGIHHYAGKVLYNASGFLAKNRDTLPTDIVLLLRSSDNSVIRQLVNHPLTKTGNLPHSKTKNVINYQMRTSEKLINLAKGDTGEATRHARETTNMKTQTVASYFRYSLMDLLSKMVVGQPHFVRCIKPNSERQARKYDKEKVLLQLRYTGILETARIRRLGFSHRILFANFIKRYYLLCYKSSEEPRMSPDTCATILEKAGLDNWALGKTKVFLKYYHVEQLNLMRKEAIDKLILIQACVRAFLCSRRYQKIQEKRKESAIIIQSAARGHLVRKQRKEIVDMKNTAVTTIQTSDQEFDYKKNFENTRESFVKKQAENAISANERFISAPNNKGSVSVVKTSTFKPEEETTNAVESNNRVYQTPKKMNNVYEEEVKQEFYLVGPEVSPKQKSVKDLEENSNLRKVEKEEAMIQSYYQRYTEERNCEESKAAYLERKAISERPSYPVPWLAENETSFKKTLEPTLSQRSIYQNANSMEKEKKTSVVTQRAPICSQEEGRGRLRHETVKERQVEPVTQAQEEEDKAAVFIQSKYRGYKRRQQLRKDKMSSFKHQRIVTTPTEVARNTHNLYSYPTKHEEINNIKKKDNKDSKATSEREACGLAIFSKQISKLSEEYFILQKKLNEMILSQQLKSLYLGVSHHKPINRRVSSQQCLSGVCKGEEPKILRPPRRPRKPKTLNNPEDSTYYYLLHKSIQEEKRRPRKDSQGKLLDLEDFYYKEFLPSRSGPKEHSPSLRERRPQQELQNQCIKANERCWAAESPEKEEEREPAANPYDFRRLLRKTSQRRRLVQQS
Description: as §1

ALK(C1156Y) = molecular target: T8, ALK(C1156Y) (Homo sapiens, UniProt Q9UM73, C1156Y); assay: KINOMEscan 1 μM, ALK(C1156Y); type: binding; conditions: 1000 nM; Entrez ALK; read-out: Percent Control
T8 construct: purchased Eurofins DiscoverX KINOMEscan
Description: as §1

FGFR4 [2] = molecular target: T9, FGFR4 (Homo sapiens, UniProt P22455); assay: KINOMEscan 1 μM, FGFR4; type: binding; conditions: 1000 nM; Entrez FGFR4; read-out: Percent Control
T9 construct: purchased Eurofins DiscoverX KINOMEscan
T9 sequence (P22455 22-802): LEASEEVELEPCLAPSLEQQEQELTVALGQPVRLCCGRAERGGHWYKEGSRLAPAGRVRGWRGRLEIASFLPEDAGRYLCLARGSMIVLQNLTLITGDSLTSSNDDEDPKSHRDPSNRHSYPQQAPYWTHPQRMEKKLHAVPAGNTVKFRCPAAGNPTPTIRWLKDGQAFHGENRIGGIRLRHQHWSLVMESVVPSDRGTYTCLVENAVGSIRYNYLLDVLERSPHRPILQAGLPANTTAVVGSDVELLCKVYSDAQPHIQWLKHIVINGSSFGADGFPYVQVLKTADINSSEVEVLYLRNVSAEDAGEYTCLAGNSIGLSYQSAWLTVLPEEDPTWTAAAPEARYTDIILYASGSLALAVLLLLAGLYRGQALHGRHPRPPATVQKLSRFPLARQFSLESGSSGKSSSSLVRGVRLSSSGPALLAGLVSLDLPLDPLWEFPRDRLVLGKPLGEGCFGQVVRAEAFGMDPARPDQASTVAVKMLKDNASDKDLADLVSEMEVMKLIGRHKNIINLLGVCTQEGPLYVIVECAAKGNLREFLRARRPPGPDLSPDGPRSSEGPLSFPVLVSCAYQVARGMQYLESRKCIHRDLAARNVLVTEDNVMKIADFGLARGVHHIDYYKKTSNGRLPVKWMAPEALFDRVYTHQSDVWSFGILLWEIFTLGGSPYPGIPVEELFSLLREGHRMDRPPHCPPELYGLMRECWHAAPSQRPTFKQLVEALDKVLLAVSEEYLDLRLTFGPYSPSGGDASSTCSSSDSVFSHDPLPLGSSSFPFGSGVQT
Description: as §1

MAPKAPK2 = molecular target: T10, MAPKAPK2 (Homo sapiens, UniProt P49137); assay: KINOMEscan 1 μM, MAPKAPK2; type: binding; conditions: 1000 nM; Entrez MAPKAPK2; read-out: Percent Control
T10 construct: purchased Eurofins DiscoverX KINOMEscan
Description: as §1

KIT-autoinhibited = molecular target: T11, KIT-autoinhibited (Homo sapiens, UniProt P10721); assay: KINOMEscan 1 μM, KIT-autoinhibited; type: binding; conditions: 1000 nM; Entrez KIT; read-out: Percent Control
T11 construct: purchased Eurofins DiscoverX KINOMEscan
Description: as §1

BLK = molecular target: T12, BLK (Homo sapiens, UniProt P51451); assay: KINOMEscan 1 μM, BLK; type: binding; conditions: 1000 nM; Entrez BLK; read-out: Percent Control
T12 construct: purchased Eurofins DiscoverX KINOMEscan
Description: as §1

LATS1 = molecular target: T13, LATS1 (Homo sapiens, UniProt O95835); assay: KINOMEscan 1 μM, LATS1; type: binding; conditions: 1000 nM; Entrez LATS1; read-out: Percent Control
T13 construct: purchased Eurofins DiscoverX KINOMEscan
Description: as §1

[3] = molecular target: T14, RPS6KA4(Kin.Dom.1-N-terminal) (Homo sapiens, UniProt O75676); assay: DiscoverX KINOMEscan binding assay at 1 μM, RPS6KA4(Kin.Dom.1-N-terminal); conditions: Compound Concentration 1000 nM, read-out: Percent Control
T14 construct: RPS6KA4(Kin.Dom.1-N-terminal); purchased Eurofins DiscoverX KINOMEscan
Description: as §1

MKNK1 = molecular target: T15, MKNK1 (Homo sapiens, UniProt Q9BUB5); assay: KINOMEscan 1 μM, MKNK1; type: binding; conditions: 1000 nM; Entrez MKNK1; read-out: Percent Control
T15 construct: purchased Eurofins DiscoverX KINOMEscan
Description: as §1

VEGFR2 = molecular target: T16, VEGFR2 (Homo sapiens, UniProt P35968); assay: DiscoverX KINOMEscan binding assay at 1 μM, VEGFR2; conditions: VEGFR2 (KDR); Compound Concentration 1000 nM; read-out: Percent Control
T16 construct: purchased Eurofins DiscoverX KINOMEscan
Description: as §1

ASK2 = molecular target: T17, ASK2 (Homo sapiens, UniProt O95382); assay: KINOMEscan at 1 μM, ASK2; type: binding; conditions: 1000 nM, read-out: Percent Control
T17 construct: purchased Eurofins DiscoverX KINOMEscan
Description: (§2) Supplement cells-12-00287-s001.zip/File S2. KinomeScan data for the CAMKK2 probe and negative control.xlsx, sheet "SGC-CAMKK2-1N" | column: Percent Control

CAMK1D = molecular target: T18, CAMK1D (Homo sapiens, UniProt Q8IU85); assay: KINOMEscan at 1 μM, CAMK1D; type: binding; conditions: 1000 nM, read-out: Percent Control
T18 construct: purchased Eurofins DiscoverX KINOMEscan
T18 sequence (Q8IU85 whole entry): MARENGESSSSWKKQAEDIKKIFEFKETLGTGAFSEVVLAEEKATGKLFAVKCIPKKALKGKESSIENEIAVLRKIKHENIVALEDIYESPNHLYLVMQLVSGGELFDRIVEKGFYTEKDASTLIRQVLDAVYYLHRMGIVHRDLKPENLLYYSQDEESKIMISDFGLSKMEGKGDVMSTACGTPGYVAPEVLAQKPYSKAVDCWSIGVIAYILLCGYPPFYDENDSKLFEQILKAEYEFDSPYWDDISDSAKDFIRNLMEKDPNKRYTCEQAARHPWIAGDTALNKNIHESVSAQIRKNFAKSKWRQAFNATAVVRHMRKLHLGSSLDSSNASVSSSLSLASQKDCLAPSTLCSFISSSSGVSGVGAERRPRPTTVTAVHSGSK
Description: as §2

RIOK3 = molecular target: T19, RIOK3 (Homo sapiens, UniProt O14730); assay: KINOMEscan at 1 μM, RIOK3; type: binding; conditions: 1000 nM, read-out: Percent Control
T19 construct: purchased Eurofins DiscoverX KINOMEscan
Description: as §2

SIK2 = molecular target: T20, SIK2 (Homo sapiens, UniProt Q9H0K1); assay: KINOMEscan at 1 μM, SIK2; type: binding; conditions: 1000 nM, read-out: Percent Control
T20 construct: purchased Eurofins DiscoverX KINOMEscan
Description: as §2

EPHA2 = molecular target: T21, EPHA2 (Homo sapiens, UniProt P29317); assay: KINOMEscan at 1 μM, EPHA2; type: binding; conditions: 1000 nM, read-out: Percent Control
T21 construct: purchased Eurofins DiscoverX KINOMEscan
Description: as §2

ERK5 = molecular target: T22, ERK5 (Homo sapiens, UniProt Q13164); assay: KINOMEscan at 1 μM, ERK5; type: binding; conditions: 1000 nM, read-out: Percent Control
T22 construct: purchased Eurofins DiscoverX KINOMEscan
Description: as §2

PIK3CA = molecular target: T23, PIK3CA (Homo sapiens, UniProt P42336); assay: KINOMEscan at 1 μM, PIK3CA; type: binding; conditions: 1000 nM, read-out: Percent Control
T23 construct: purchased Eurofins DiscoverX KINOMEscan
Description: as §2

FGFR4 [4] = molecular target: T9, FGFR4; assay: KINOMEscan binding assay at 1 μM, FGFR4; conditions: Compound Concentration 1000 nM; read-out: Percent Control
Description: as §2

CSNK1G2 = molecular target: T24, CSNK1G2 (Homo sapiens, UniProt P78368); assay: KINOMEscan at 1 μM, CSNK1G2; type: binding; conditions: 1000 nM, read-out: Percent Control
T24 construct: purchased Eurofins DiscoverX KINOMEscan
T24 sequence (P78368 whole entry): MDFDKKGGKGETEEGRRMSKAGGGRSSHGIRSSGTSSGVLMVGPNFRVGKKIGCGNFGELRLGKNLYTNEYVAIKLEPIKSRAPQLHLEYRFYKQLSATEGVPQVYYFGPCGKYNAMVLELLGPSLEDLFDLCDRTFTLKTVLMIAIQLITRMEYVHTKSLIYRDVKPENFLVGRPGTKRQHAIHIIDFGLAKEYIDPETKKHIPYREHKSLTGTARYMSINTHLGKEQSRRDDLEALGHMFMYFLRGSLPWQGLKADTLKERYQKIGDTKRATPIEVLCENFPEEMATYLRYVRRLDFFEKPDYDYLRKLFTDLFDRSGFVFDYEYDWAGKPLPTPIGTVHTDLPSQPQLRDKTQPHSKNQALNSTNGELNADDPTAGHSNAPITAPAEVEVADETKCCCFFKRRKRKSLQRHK
Description: as §2

PKAC-beta = molecular target: T25, PKAC-beta (Homo sapiens, UniProt P22694); assay: KINOMEscan binding assay at 1 μM, PKAC-beta; conditions: Compound Concentration 1000 nM; read-out: Percent Control
T25 construct: purchased Eurofins DiscoverX KINOMEscan
Description: as §2

RET(M918T) = molecular target: T26, RET(M918T) (Homo sapiens, UniProt P07949, M918T); assay: KINOMEscan at 1 μM, RET(M918T); type: binding; conditions: 1000 nM, read-out: Percent Control
T26 construct: purchased Eurofins DiscoverX KINOMEscan
Description: as §2

[5] = molecular target: T27, JAK1(JH1domain-catalytic) (Homo sapiens, UniProt P23458); assay: KINOMEscan at 1 μM, JAK1(JH1domain-catalytic); type: binding; conditions: 1000 nM, read-out: Percent Control
T27 construct: JAK1(JH1domain-catalytic); purchased Eurofins DiscoverX KINOMEscan
Description: as §2

ERK1 = molecular target: T28, ERK1 (Homo sapiens, UniProt P27361); assay: KINOMEscan at 1 μM, ERK1; type: binding; conditions: 1000 nM, read-out: Percent Control
T28 construct: purchased Eurofins DiscoverX KINOMEscan
Description: as §2

PIK3CA(H1047L) = molecular target: T29, PIK3CA(H1047L) (Homo sapiens, UniProt P42336, H1047L); assay: KINOMEscan at 1 μM, PIK3CA(H1047L); type: binding; conditions: 1000 nM, read-out: Percent Control
T29 construct: purchased Eurofins DiscoverX KINOMEscan
Description: as §2

PIKFYVE = molecular target: T30, PIKFYVE (Homo sapiens, UniProt Q9Y2I7); assay: KINOMEscan at 1 μM, PIKFYVE; type: binding; conditions: 1000 nM, read-out: Percent Control
T30 construct: purchased Eurofins DiscoverX KINOMEscan
Description: as §2

NEK7 = molecular target: T31, NEK7 (Homo sapiens, UniProt Q8TDX7); assay: KINOMEscan at 1 μM, NEK7; type: binding; conditions: 1000 nM, read-out: Percent Control
T31 construct: purchased Eurofins DiscoverX KINOMEscan
Description: as §2

MRCKA = molecular target: T32, MRCKA (Homo sapiens, UniProt Q5VT25); assay: KINOMEscan at 1 μM, MRCKA; type: binding; conditions: 1000 nM, read-out: Percent Control
T32 construct: purchased Eurofins DiscoverX KINOMEscan
T32 sequence (Q5VT25 whole entry): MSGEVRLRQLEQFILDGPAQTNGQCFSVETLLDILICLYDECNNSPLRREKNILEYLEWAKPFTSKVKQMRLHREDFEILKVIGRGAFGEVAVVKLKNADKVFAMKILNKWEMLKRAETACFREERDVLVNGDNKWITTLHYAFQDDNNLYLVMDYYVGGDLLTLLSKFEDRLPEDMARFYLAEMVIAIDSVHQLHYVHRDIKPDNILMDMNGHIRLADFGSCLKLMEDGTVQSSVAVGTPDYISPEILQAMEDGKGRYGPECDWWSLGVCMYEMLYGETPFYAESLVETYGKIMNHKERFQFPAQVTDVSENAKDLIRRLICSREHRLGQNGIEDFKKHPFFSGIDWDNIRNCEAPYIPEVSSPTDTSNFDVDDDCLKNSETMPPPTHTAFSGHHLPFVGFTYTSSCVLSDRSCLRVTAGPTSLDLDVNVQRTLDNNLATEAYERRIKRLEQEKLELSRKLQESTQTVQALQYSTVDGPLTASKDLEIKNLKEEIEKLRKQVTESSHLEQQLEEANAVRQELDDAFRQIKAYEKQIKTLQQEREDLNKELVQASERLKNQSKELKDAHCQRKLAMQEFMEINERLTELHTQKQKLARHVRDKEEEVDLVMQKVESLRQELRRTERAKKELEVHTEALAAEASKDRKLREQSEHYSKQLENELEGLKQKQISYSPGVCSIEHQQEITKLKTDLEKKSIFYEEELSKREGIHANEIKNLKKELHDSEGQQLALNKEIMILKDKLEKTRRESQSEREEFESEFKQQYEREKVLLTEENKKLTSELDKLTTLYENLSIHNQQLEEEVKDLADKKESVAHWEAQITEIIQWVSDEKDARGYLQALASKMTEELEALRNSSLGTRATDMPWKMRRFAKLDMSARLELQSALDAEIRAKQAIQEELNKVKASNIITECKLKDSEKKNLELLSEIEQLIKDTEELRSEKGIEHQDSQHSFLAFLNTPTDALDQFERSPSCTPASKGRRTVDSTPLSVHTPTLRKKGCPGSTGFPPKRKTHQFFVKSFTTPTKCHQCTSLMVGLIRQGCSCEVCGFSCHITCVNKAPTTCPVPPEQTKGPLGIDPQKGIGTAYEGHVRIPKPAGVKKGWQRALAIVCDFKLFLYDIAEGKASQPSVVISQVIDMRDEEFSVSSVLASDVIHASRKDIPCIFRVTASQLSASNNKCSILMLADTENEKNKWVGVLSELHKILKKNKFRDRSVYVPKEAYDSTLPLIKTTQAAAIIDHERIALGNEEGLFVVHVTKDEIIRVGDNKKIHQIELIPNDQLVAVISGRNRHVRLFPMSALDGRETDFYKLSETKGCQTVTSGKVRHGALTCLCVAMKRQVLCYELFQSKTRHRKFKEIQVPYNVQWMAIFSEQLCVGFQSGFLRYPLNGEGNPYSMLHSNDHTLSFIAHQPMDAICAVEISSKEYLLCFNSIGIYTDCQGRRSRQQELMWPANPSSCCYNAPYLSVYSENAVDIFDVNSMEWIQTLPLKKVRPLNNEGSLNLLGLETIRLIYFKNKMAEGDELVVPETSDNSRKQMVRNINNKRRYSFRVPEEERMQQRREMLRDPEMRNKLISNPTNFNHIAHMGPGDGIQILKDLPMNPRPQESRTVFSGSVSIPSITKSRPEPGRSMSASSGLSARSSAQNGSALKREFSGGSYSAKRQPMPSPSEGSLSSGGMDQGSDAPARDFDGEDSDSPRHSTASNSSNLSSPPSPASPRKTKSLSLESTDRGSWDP
Description: as §2

Cc1cccc(-c2cnc3occ(-c4ccc(C(=O)O)c(C5CCCC5)c4)c3c2)c1 [SGC-CAMKK2-1 (YL-36)]
remaining binding at 1 µM (MAK): 78% | remaining binding at 1 µM (WEE2): 100% | remaining binding at 1 µM (LOK): 100% | remaining binding at 1 µM (ACVR1): 83% | remaining binding at 1 µM (MINK): 100% | remaining binding at 1 µM [1]: 100% | remaining binding at 1 µM (MYO3A): 100% | remaining binding at 1 µM (ALK(C1156Y)): 100% | remaining binding at 1 µM (FGFR4 [2]): 98% | remaining binding at 1 µM (MAPKAPK2): 100% | remaining binding at 1 µM (KIT-autoinhibited): 100% | remaining binding at 1 µM (BLK): 70% | remaining binding at 1 µM (LATS1): 100% | remaining binding at 1 µM [3]: 100% | remaining binding at 1 µM (MKNK1): 100% | remaining binding at 1 µM (VEGFR2): 100%

O=C(O)c1ccc(-c2coc3ncc(-c4ccccc4)cc23)cc1Cl [SGC-CAMKK2-1N (UNC-YL-83)]
remaining binding at 1 µM (ASK2): 56% | remaining binding at 1 µM (CAMK1D): 61% | remaining binding at 1 µM (RIOK3): 76% | remaining binding at 1 µM (SIK2): 93% | remaining binding at 1 µM (EPHA2): 76% | remaining binding at 1 µM (ERK5): 81% | remaining binding at 1 µM (PIK3CA): 74% | remaining binding at 1 µM (FGFR4 [4]): 100% | remaining binding at 1 µM (CSNK1G2): 100% | remaining binding at 1 µM (PKAC-beta): 100% | remaining binding at 1 µM (RET(M918T)): 99% | remaining binding at 1 µM [5]: 82% | remaining binding at 1 µM (ERK1): 95% | remaining binding at 1 µM (PIK3CA(H1047L)): 53% | remaining binding at 1 µM (PIKFYVE): 84% | remaining binding at 1 µM (NEK7): 78% | remaining binding at 1 µM (MRCKA): 96%
